Laboratory results reported in patent US20250215013A1, “SUBSTITUTED TRICYCLIC COMPOUNDS AS PARP INHIBITORS AND THE USE THEREOF” (IMPACT THERAPEUTICS (SHANGHAI), INC., priority 2022, published 2025).
pIC50: −log10 of the molar value.

Tests used:
PDE3A = PDE3A (Homo sapiens (Human), UniProt Q14432); assay: PDE3A fluorescence polarization (FP) assay; format: biochemical; conditions: PDE3A enzyme activity, FAM-cAMP substrate
Procedure: A PDE3A fluorescence polarization (FP) assay in a multi-step format was performed using black, round bottom 384-well plates (Corning, 4514). The testing compounds were serially diluted from stock solutions to 11 concentrations with a 3-fold dilution factor using DMSO. Fifty nl of compound dilutions was mixed with 5 μl of reaction buffer (10 mM Tris-HCl, pH 7.2, 10 mM MgCl2, 0.05% NaN3, 0.1% phosphate-free BSA) containing 0.2 μM FAM-cAMP (BPS, 60200) and 2 nM PDE3A (Sino Biological, 11908-H20B1) enzyme, and incubated for 60 min at 25° C. Afterwards, 15 μl binding agent mixture (Molecular Devices, R8124) was added to each well and the plate was incubated for 60 min at 25° C. The plate was loaded to a BMG PHERAstar FSX to read Fluorescence Polarization (FP) values at a setting of: Ex: 485 nm and Em: 520 nm. Emission light intensity with polarizers parallel (Emi) and emission light intensity with polarizers perpendicular (Emi) were recorded. The Polarization (mP) values were calculated using the following formula: mP=(SignalEml−SignalEm⊥)/(SignalEml+SignalEm⊥).
• 1) The inhibition % of a compound dose is calculated as:
[formula] • wherein mPMin and mPMax refer to the polarization readings in the condition of substrate only and substrate+enzyme, respectively. • 2) The IC50 values were calculated from non-linear curve fitting using following regression equation using a commercial curve fitting software GraphPad Prism 9.2.0.
[formula] • wherein, X refers to Log of compound concentration and Y refers to % Inhibition.

MDA-MB-436 cells = assay: Growth inhibition assay against BRCA mutant human breast cancer MDA-MB-436 cell line (CCK-8); format: cell-based; conditions: proliferation of MDA-MB-436 cells, 7 days
[1] = biological target: recombinant poly(ADP-ribose) polymerase 1 (PARP1) (Homo sapiens (Human), UniProt P09874)
Chain of recombinant poly(ADP-ribose) polymerase 1 (PARP1) (P09874 whole entry): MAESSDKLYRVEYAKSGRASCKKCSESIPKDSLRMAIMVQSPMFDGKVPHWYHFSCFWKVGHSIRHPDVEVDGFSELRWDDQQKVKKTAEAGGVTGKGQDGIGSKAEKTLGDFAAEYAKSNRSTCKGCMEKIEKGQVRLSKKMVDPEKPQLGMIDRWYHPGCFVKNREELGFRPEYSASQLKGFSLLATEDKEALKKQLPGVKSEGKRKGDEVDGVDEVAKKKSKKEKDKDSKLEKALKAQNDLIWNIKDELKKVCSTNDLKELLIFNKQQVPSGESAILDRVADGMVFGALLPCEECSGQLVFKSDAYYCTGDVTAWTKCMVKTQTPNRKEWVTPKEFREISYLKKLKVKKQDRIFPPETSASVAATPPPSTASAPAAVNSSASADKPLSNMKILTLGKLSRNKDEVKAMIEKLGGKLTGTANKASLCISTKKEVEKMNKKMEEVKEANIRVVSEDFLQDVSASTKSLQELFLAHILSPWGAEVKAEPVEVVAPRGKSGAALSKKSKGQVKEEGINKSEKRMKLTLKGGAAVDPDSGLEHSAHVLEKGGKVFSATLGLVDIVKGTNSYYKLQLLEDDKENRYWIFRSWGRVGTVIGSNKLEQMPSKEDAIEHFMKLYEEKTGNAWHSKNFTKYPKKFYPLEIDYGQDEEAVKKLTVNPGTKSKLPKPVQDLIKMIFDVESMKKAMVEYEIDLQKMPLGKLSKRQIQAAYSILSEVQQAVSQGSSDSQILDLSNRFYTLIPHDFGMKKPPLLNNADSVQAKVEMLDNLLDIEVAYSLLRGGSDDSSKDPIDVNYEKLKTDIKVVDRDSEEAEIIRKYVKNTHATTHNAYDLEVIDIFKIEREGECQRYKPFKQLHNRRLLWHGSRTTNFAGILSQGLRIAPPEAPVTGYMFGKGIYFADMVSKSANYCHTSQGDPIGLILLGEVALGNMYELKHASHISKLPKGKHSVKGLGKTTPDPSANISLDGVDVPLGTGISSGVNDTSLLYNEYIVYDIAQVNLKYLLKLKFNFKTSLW

[2] = biological target: recombinant poly(ADP-ribose) polymerase 2 (PARP2); assay: PARP2 chemiluminescent assay; format: biochemical; conditions: inhibition of PARP2 enzyme activity, chemiluminescence

Chain of PDE3A (Q14432 whole entry): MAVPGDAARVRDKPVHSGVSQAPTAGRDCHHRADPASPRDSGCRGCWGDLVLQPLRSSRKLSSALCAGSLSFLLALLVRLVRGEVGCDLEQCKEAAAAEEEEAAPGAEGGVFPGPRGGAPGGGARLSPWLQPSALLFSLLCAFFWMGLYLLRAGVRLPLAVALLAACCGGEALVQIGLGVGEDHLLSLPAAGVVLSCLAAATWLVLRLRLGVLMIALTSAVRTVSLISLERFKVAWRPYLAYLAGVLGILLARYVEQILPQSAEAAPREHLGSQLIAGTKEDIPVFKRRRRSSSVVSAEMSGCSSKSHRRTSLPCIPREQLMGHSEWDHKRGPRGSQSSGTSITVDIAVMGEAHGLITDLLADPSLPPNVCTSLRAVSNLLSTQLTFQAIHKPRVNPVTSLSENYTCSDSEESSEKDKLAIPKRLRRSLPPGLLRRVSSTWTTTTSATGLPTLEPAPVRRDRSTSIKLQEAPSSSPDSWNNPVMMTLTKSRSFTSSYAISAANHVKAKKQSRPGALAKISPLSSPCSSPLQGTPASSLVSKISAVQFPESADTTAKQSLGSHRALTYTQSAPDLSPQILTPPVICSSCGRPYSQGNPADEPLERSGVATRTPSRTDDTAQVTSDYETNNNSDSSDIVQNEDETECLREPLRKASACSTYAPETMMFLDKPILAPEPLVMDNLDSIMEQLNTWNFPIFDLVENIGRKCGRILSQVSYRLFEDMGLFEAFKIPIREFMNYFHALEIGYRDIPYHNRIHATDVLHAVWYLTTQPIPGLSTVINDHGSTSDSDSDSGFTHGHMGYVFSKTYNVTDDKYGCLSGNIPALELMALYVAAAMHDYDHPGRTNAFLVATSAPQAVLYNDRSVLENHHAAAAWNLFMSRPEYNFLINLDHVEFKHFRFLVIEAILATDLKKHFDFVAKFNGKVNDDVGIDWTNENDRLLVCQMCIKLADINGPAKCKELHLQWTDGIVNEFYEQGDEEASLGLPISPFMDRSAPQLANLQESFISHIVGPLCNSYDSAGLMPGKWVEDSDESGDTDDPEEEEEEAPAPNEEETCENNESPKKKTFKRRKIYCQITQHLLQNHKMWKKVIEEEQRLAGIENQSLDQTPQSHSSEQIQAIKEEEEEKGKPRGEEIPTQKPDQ

Row | SMILES | pIC50 (PDE3A) | pIC50 (MDA-MB-436 cells; Homo sapiens, MDA-MB-436, […]) | pIC50 [1] | pIC50 (MDA-MB-436 cells) | IC50 [2] [nM]
1 | CNC(=O)c1ccc(N2CCN(Cc3ccc4c(c3)[nH]c(=O)c3occc34)CC2)c(C)n1 [Example 2, 7-((4-(2-methyl-6-(methylcarbamoyl)pyridin-3-yl)piperazin-1-yl)methyl)furo[2,3-c]quinolin-4(5H)-one] | 5.84 | – | – | – | –
2 | CNC(=O)c1ccc(N2CCN(Cc3ccc4c(c3)[nH]c(=O)c3ccoc34)CC2)c(C)n1 [Example 6, 7-((4-(2-methyl-6-(methylcarbamoyl)pyridin-3-yl)piperazin-1-yl)methyl)furo[3,2-c]quinolin-4(5H)-one] | 6.24 | – | – | – | –
3 | CNC(=O)c1ccc(N2CCN(Cc3cc(F)c4c(c3)[nH]c(=O)c3occc34)CC2)c(C)n1 [Example 40, 9-fluoro-7-((4-(2-methyl-6-(methylcarbamoyl)pyridin-3-yl)piperazin-1-yl)methyl)furo[2,3-c]quinolin-4(5H)-one] | 6.16 | 8.61 | – | – | –
4 | CNC(=O)c1ccc(N2CCN(Cc3ccc4c(c3)[nH]c(=O)c3c(F)cnn34)CC2)c(F)n1 [Example 49, 7-((4-(2-fluoro-6-(methylcarbamoyl)pyridin-3-yl)piperazin-1-yl)methyl)-3-fluoropyrazolo[1,5-a]quinoxalin-4(5H)-one] | 6.06 | 8.98 | – | – | –
5 | CNC(=O)c1ccc(N2CCN(Cc3ccc4c([nH]c(=O)c5c(Cl)cnn54)c3F)CC2)c(F)n1 [Example 60, 7-((4-(2-fluoro-6-(methylcarbamoyl)pyridin-3-yl)piperazin-1-yl)methyl)-6-fluoro-3-chloro-pyrazolo[1,5-a]quinoxalin-4(5H)-one] | < 4.52 | 8.85 | – | – | –
6 | O=C(NC1CC1)c1ccc(N2CCN(Cc3ccc4c([nH]c(=O)c5occc54)c3F)CC2)c(F)n1 [Example 67, 7-((4-(2-fluoro-6-(cyclopropylcarbamoyl)pyridin-3-yl)piperazin-1-yl)methyl)-6-fluorofuro[2,3-c]quinolin-4(5H)-one] | 4.86 | 8.18 | – | – | –
7 | CNC(=O)c1ccc(N2CCN(Cc3ccc4c([nH]c(=O)n5nccc45)c3F)CC2)c(C)n1 [Example 72, 8-((4-(2-methyl-6-(methylcarbamoyl)pyridin-3-yl)piperazin-1-yl)methyl)-7-fluoropyrazolo[1,5-c]quinazolin-5(6H)-one] | – | – | 8.97 | 7.54 | 1830
8 | CNC(=O)c1ccc(N2CCN(Cc3ccc4c5c(c(=O)[nH]c4c3)CNC5)CC2)c(C)n1 [Example 74, 7-((4-(6-methylcarbamoyl-2-methylpyridin-3-yl)piperazin-1-yl)methyl)-1,2,3,5-tetrahydro-4H-pyrrolo[3,4-c]quinolin-4-one] | – | 7.24 | 8.48 | – | 2980
9 | CNC(=O)c1ccc(N2CCN(Cc3ccc4c5c(c(=O)[nH]c4c3)CN(C)C5)CC2)c(C)n1 [Example 75, 7-((4-(6-methylcarbamoyl-2-methylpyridin-3-yl)piperazin-1-yl)methyl)-2-methyl-1,2,3,5-tetrahydro-4H-pyrrolo[3,4-c]quinolin-4-one] | – | 7.96 | 8.08 | – | 2380
10 | CNC(=O)c1ccc(N2CCN(Cc3cc4[nH]c(=O)c5cn(C)nc5c4cc3F)CC2)c(C)n1 [Example 89, 7-((4-(2-methyl-6-(methylcarbamoyl)pyridin-3-yl)piperazin-1-yl)methyl)-8-fluoro-2-methyl-2,5-dihydro-4H-pyrazolo[4,3-c]quinolin-4-one] | – | 7.92 | 8.24 | – | 3410
11 | CNC(=O)c1ccc(N2CCN(Cc3cc4[nH]c(=O)c5cn(C)nc5c4cc3F)CC2)c(F)n1 [Example 91, 7-((4-(2-fluoro-6-(methylcarbamoyl)pyridin-3-yl)piperazin-1-yl)methyl)-8-fluoro-2-methyl-2,5-dihydro-4H-pyrazolo[4,3-c]quinolin-4-one] | – | 7.68 | 8.37 | – | 942
12 | CNC(=O)c1ccc(N2CCN(Cc3ccc4c([nH]c(=O)c5nn(C)cc54)c3F)CC2)c(F)n1 [Example 93, 6-fluoro-7-((4-(2-fluoro-6-(methylcarbamoyl)pyridin-3-yl)piperazin-1-yl)methyl)-2-methyl-2,5-dihydro-4H-pyrazolo[3,4-c]quinolin-4-one] | < 4.52 | 8.42 | – | – | –
13 | CNC(=O)c1ccc(N2CCN(Cc3ccc4c(c3)[nH]c(=O)c3[nH]ccc34)CC2)c(F)n1 [Example 99, 7-((4-(2-fluoro-6-(methylcarbamoyl)pyridin-3-yl)piperazin-1-yl)methyl)-3,5-dihydro-4H-pyrrolo[2,3-c]quinolin-4-one] | – | 7.27 | 8.23 | – | > 10000
14 | CNC(=O)c1ccc(N2CCN(Cc3ccc4c([nH]c(=O)c5occc54)c3C)CC2)c(F)n1 [Example 103, 7-((4-(2-fluoro-6-(methylcarbamoyl)pyridin-3-yl)piperazin-1-yl)methyl)-6-methylfuro[2,3-c]quinolin-4(5H)-one] | – | 7.90 | 8.37 | – | 667
15 | CNC(=O)c1ccc(N2CCN(Cc3cc4[nH]c(=O)c5occc5c4cc3C)CC2)c(F)n1 [Example 104, 7-((4-(2-fluoro-6-(methylcarbamoyl)pyridin-3-yl)piperazin-1-yl)methyl)-8-methylfuro[2,3-c]quinolin-4(5H)-one] | – | 7.49 | 8.23 | – | 487
16 | CNC(=O)c1ccc(N2CCN(Cc3ccc4c(c3)[nH]c(=O)c3ccoc34)CC2)cn1 [Example 118, 7-((4-(6-(methylcarbamoyl)pyridin-3-yl)piperazin-1-yl)methyl)furo[3,2-c]quinolin-4(5H)-one] | – | 8.81 | 9.28 | – | 273
17 | CNC(=O)c1ccc(N2CCN(Cc3cc4[nH]c(=O)n5nccc5c4cc3F)CC2)c(F)n1 [Example 120, 8-((4-(2-fluoro-6-(methylcarbamoyl)pyridin-3-yl)piperazin-1-yl)methyl)-9-fluoropyrazolo[1,5-c]quinazolin-5(6H)-one] | – | 7.63 | 8.73 | – | 683
18 | CNC(=O)c1ccc(N2CCN(Cc3cc(F)c4c(c3)[nH]c(=O)n3cc(C)nc43)CC2)c(C)n1 [Example 136, 8-((4-(2-methyl-6-(methylcarbamoyl)pyridin-3-yl)piperazin-1-yl)methyl)-2-methyl-10-fluoroimidazo[1,2-c]quinazolin-5(6H)-one] | – | 8.98 | 8.75 | – | 931
19 | CNC(=O)c1ccc(N2CCN(Cc3cc(F)c4c(c3)[nH]c(=O)n3cc(C)nc43)CC2)c(F)n1 [Example 137, 8-((4-(2-fluoro-6-(methylcarbamoyl)pyridin-3-yl)piperazin-1-yl)methyl)-2-methyl-10-fluoroimidazo[1,2-c]quinazolin-5(6H)-one] | – | 8.16 | 8.67 | – | 266
20 | CNC(=O)c1ccc(N2CCN(Cc3ccc4c([nH]c(=O)c5cc(C)nn54)c3F)CC2)c(Cl)n1 [Example 151, 7-((4-(2-chloro-6-(methylcarbamoyl)pyridin-3-yl)piperazin-1-yl)methyl)-6-fluoro-2-methylpyrazolo[1,5-a]quinoxalin-4(5H)-one] | – | 8.92 | 9.30 | – | 1210
21 | CNC(=O)c1ccc(N2CCN(Cc3ccc4c([nH]c(=O)c5c(C)cnn54)c3F)C[C@H]2C)c(F)n1 [Example 166, (R)-6-fluoro-7-((4-(2-fluoro-6-(methylcarbamoyl)pyridin-3-yl)-3-methylpiperazin-1-yl)methyl)-3-methylpyrazolo[1,5-a]quinoxalin-4(5H)-one] | – | 7.79 | 9.68 | – | 801
22 | CNC(=O)c1ccc2c(n1)OC[C@H]1CN(Cc3ccc4c([nH]c(=O)c5c(C)cnn54)c3F)CCN21 [Example 167, (R)-6-fluoro-3-methyl-7-((8-methylcarbamoyl-1,2,4a,5-tetrahydropyrazino[1,2-d]pyrido[2,3-b][1,4]oxazin-3(4H)-yl)methyl)pyrazolo[1,5-a]quinoxalin-4(5H)-one] | – | 7.73 | 9.48 | – | 397
23 | CNC(=O)c1ccc(N2CCN(Cc3ccc4c([nH]c(=O)c5c(F)cnn54)c3F)CC2)c(Cl)n1 [Example 178, 7-((4-(2-chloro-6-(methylcarbamoyl)pyridin-3-yl)piperazin-1-yl)methyl)-3,6-difluoropyrazolo[1,5-a]quinoxalin-4(5H)-one] | – | 9.10 | 9.55 | – | 1390
24 | CNC(=O)c1ccc(N2CCN(Cc3cc4[nH]c(=O)c5c(F)cnn5c4cc3F)CC2)c(Cl)n1 [Example 184, 7-((4-(2-chloro-6-(methylcarbamoyl)pyridin-3-yl)piperazin-1-yl)methyl)-3,8-difluoropyrazolo[1,5-a]quinoxalin-4(5H)-one] | – | 8.62 | 9.30 | – | 67.1
25 | [2H]C([2H])([2H])NC(=O)c1ccc(N2CCN(Cc3ccc4c([nH]c(=O)c5c(F)cnn54)c3F)CC2)c(F)n1 [Example 185, 7-((4-(2-fluoro-6-((methyl-d3)carbamoyl)pyridin-3-yl)piperazin-1-yl)methyl)-3,6-difluoropyrazolo[1,5-a]quinoxalin-4(5H)-one] | – | 9.11 | 9.62 | – | 431
26 | CNC(=O)c1ccc(N2CCN(Cc3ccc4c([nH]c(=O)c5c(Cl)c(C)nn54)c3F)CC2)c(F)n1 [Example 199, 6-fluoro-7-((4-(2-fluoro-6-(methylcarbamoyl)pyridin-3-yl)piperazin-1-yl)methyl)-2-methyl-3-chloropyrazolo[1,5-a]quinoxalin-4(5H)-one] | – | 8.95 | 9.80 | – | 17.9
27 | CNC(=O)c1ccc(N2CCN(C(C)c3ccc4c([nH]c(=O)c5c(C)cnn54)c3F)CC2)c(F)n1 (stereo not drawn) [Example 204, 6-fluoro-7-(1-(4-(2-fluoro-6-(methylcarbamoyl)pyridin-3-yl)piperazin-1-yl)ethyl)-3-methylpyrazolo[1,5-a]quinoxalin-4(5H)-one] | – | 7.92 | 9.17 | – | > 10000
